# What was measured:
# Experiment in all cases: AUC of viability dose-response curve (% viability x log10 dose units); higher = less sensitive
# Conditions in all cases: 48 h
# NOMO1 = tested on: NOMO1
# Outline: (§1)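 Leukemia cells adapted to each medium (500 or 1000 cells/well, 1536-well plates) were exposed to library compounds in DMSO for 48 h at 37°C at 11 threefold doses, 47 μM to 0.79 nM. Luminescence by CellTiter-Glo One was normalised per plate to DMSO and cell-free wells, then fitted with a four-parameter log-logistic curve on log10 dose. Curves above full viability were scaled and quality-control failures removed before area under the curve was integrated by trapezoidal rule.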
# P12-Ichikawa = tested on: P12-Ichikawa
# Outline: as §1
# SEM cells = tested on: SEM cells
# Outline: as §1
# [1] = RPMI 5 mM glucose + 10% dialyzed FBS
SMILES,AUC of viability dose-response curve (NOMO1; HPLM + 10% dialyzed FBS),AUC of viability dose-response curve (NOMO1; RPMI 5 mM glucose + 10% FBS),AUC of viability dose-response curve (NOMO1; [1]),AUC of viability dose-response curve (P12-Ichikawa; HPLM + 10% dialyzed FBS),AUC of viability dose-response curve (P12-Ichikawa; RPMI 5 mM glucose + 10% FBS),AUC of viability dose-response curve (P12-Ichikawa; [1]),AUC of viability dose-response curve (SEM cells; HPLM + 10% dialyzed FBS),AUC of viability dose-response curve (SEM cells; RPMI 5 mM glucose + 10% FBS),AUC of viability dose-response curve (SEM cells; [1])
COc1cc2ncn(-c3cc(OCc4ccccc4C(F)(F)F)c(C(N)=O)s3)c2cc1OC,349,375,375,333,352,364,358,354,372
OCCN(CCO)c1nc(N2CCCCC2)c2nc(N(CCO)CCO)nc(N3CCCCC3)c2n1,459,438,465,459,467,463,454,457,461
O=C(O)Cc1cccc(OCCCN(Cc2cccc(C(F)(F)F)c2Cl)CC(c2ccccc2)c2ccccc2)c1,432,461,465,460,442,450,444,437,456
COc1ccc(C2(C#N)CCC(C(=O)O)CC2)cc1OC1CCCC1 (stereo not given),465,434,471,475,466,464,439,443,443
NC[C@H]1O[C@H](O[C@H]2[C@H](O)[C@@H](O[C@H]3O[C@H](CO)[C@@H](O)[C@H](N)[C@H]3O)[C@H](N)C[C@@H]2N)[C@H](N)C[C@@H]1O,467,467,452,459,455,413,455,470,469
OC[C@H]1OC(OC2=CC3=C(C(=C2)O)C(=O)\C(=C/O3)C4=CC=C(O)C=C4)[C@H](O)[C@@H](O)[C@@H]1O (stereo not given in full),391,407,372,405,401,391,408,454,451
Cn1cnc([N+](=O)[O-])c1Sc1ncnc2nc[nH]c12,353,342,353,381,365,367,398,337,299
CCOC(=O)[C@@H](N)CCC(=O)N[C@@H](CSCc1ccccc1)C(=O)N[C@@H](C(=O)OCC)c1ccccc1,468,466,474,467,458,458,466,473,461
CO[C@@H]1[C@@H](O)[C@H](O)[C@@H](n2c3c(Cl)cccc3c3c4c(c5c6cccc(Cl)c6[nH]c5c32)C(=O)NC4=O)O[C@H]1CO,340,323,325,266,259,251,292,254,283
COc1cc2c(Nc3ccc(Cl)c(Cl)c3F)ncnc2cc1OC[C@@H]1C[C@@H]2CN(C)C[C@@H]2C1,421,450,447,444,453,444,384,443,438
O=C1CCCC(=O)C1C(=O)c1ccc(C(F)(F)F)cc1[N+](=O)[O-],403,471,463,465,450,468,474,464,466
O=C(NCC1CCOCC1)c1cnc(Nc2ccc(Cl)cc2Cl)nc1C(F)(F)F,439,456,456,450,472,465,425,461,448
N#CC[C@H](C1CCCC1)n1cc(-c2ncnc3[nH]ccc23)cn1,384,374,407,408,401,372,405,396,402
CN1CCC(CC1)=C2C3=C(C=CC=C3)\C=C/C4=C2C=CC=C4,470,467,468,473,467,477,469,467,468
Nc1ccc([S+](=O)([O-])Nc2ncccn2)cc1,467,444,452,464,452,471,460,462,437
Oc1c(Cl)cc(Cl)c2cccnc12,446,438,462,465,447,449,435,439,433
CC(C)Cn1cnc2c(N)nc3ccccc3c21,450,466,448,442,451,463,459,452,455
C1CN\2C[C@@H](\N=C2S1)C3=CC=CC=C3,465,442,429,467,462,455,459,396,476

SMILES,AUC of viability dose-response curve (NOMO1; HPLM + 10% dialyzed FBS),AUC of viability dose-response curve (NOMO1; RPMI 5 mM glucose + 10% FBS),AUC of viability dose-response curve (NOMO1; [1]),AUC of viability dose-response curve (P12-Ichikawa; HPLM + 10% dialyzed FBS),AUC of viability dose-response curve (P12-Ichikawa; RPMI 5 mM glucose + 10% FBS),AUC of viability dose-response curve (P12-Ichikawa; [1]),AUC of viability dose-response curve (SEM cells; HPLM + 10% dialyzed FBS),AUC of viability dose-response curve (SEM cells; RPMI 5 mM glucose + 10% FBS),AUC of viability dose-response curve (SEM cells; [1])
CCOC(=O)O[C@]1(C(=O)OCCl)CC[C@H]2[C@@H]3CCC4=CC(=O)C=C[C@]4(C)[C@H]3[C@@H](O)C[C@@]21C,459,427,431,467,461,450,460,429,430
O=C1N\C=N/C2=C1C=N[NH]2,425,421,382,393,397,398,359,350,384
CC(C)(C)C1=CC(=C(NC(=O)C/2=C/NC3=C(C=CC=C3)C2=O)C=C1O)C(C)(C)C,447,462,464,471,452,455,461,467,470
Cc1ccc(-c2cc(C(F)(F)F)nn2-c2ccc([S+](N)(=O)[O-])cc2)cc1,451,468,463,471,463,468,464,460,470
COc1cc(OC)c(C(=O)CCCN2CCCC2)c(OC)c1,448,440,441,464,456,417,446,451,443
CCc1cc(-c2n[nH]c(C)c2-c2ccc3c(c2)OCCO3)c(O)cc1O,450,447,448,455,435,444,422,414,418
CC[C@H]1CN2CCc3cc(OC)c(OC)cc3[C@@H]2C[C@@H]1C[C@H]1NCCc2cc(OC)c(OC)cc21,305,300,305,289,279,300,193,214,240
N#Cc1ccc(NC(=O)Nc2ccccc2Br)c2nn[nH]c12,477,463,456,475,457,465,448,473,449
CCCCCCCCCCCC/1=C(O)/C(=O)/C=C(O)\C1=O,326,301,326,357,357,375,462,454,457
C[N+]1(C)[C@@H]2CC(OC(=O)C(O)(c3cccs3)c3cccs3)C[C@H]1[C@@H]1O[C@@H]12 (stereo not given in full),464,466,471,471,476,468,462,460,457
Cc1ccc(/C=N/NC(=O)c2ccccc2Oc2ccccc2)o1,456,418,457,452,432,410,452,468,388
NC(CO)C(=O)NNCc1ccc(O)c(O)c1O (stereo not given),448,431,454,450,435,428,450,439,437
Cc1cnc(Nc2ccc(N3CCN(C)CC3)cc2)nc1Nc1cccc([S+](=O)([O-])NC(C)(C)C)c1,375,411,406,400,390,400,311,303,324
CCCCCN(CCC12CC3CC(CC(C3)C1)C2)C(=O)NCCCc1ccncc1,454,465,467,458,469,465,472,463,466
COC(=O)C/1=C(C)/N/C(=C(\C1C2=CC(=CC=C2)[N+]([O-])=O)C(=O)OCCCN3CCC(CC3)(C4=CC=CC=C4)C5=CC=CC=C5)C (stereo not given),439,441,464,453,429,445,458,439,441
C=CC(=O)Nc1ccc2ncnc(Nc3ccc(OCc4cccc(F)c4)c(Cl)c3)c2c1,355,368,355,404,404,404,370,400,383
CC1=C(/C=C/C(C)=C/C=C/C(C)=C/C(=O)O)C(C)(C)CCC1,434,443,412,468,464,467,475,465,450

# — the supplement of paper PMC11451515
